Laboratory results reported in US20200399308A1, “COMPOUNDS AND METHODS FOR ELICITING ANTIMICROBIAL ACTIVITY” (Technion Research & Development Foundation Limited, priority 2018, published 2020).
Read-outs that look alike come from different tables or passages of the source.

How the values were obtained:
Escherichia coli 25922 = assay: Mouse peritonitis-sepsis model; format: in vivo; conditions: neutropenic ICR mice; rifampin 20 mg/kg orally alone
Protocol: A mouse peritonitis-sepsis model was created as described elsewhere. Infection was obtained after intraperitoneal injection of bacteria from a logarithmic-phase culture. Infected mice were treated subcutaneously. The doses were selected to allow comparison with the reference compound and to remain below the maximum tolerated dose after double-dose administration. […] Briefly, mouse peritonitis sepsis model for in vivo studies were performed using male ICR mice ([…]) obtained from Envigo Laboratories (Rehovot, Israel). […] Infection was obtained by intraperitoneal injection of a logarithmic phase culture of E. coli 25922 (1.3±0.2×10^6 CFU permouse in 0.3 ml PBS). […] Infection control mice were injected with the PBS vehicle. Mouse survival was monitored for up to 7 days after treatment. Statistical analyses were performed by paired Student's t test, at α=0.05.

E. coli strain 14182 = assay: Checkerboard antibiotic MIC with Compound B; format: cell-based, Escherichia coli
Protocol: (§1) Minimal inhibitory concentrations (MICs) were determined as previously described. […] MICs were determined by microdilution susceptibility testing in 96-well plates (by Nunc) using inocula of 10^5 bacteria per ml. Cell populations were evaluated by optical density measurements at 620 nm and were calibrated against a set of standards. Hundred (100) μl of a bacterial suspension were added to 100 μl of culture medium (control) or to 100 μl of culture medium containing various tested compound concentrations in 2-fold serial dilutions. Inhibition of proliferation was determined by optical density measurements at 620 nm after an incubation period of 24 hours at 37° C. Data were obtained from ≥2 independent experiments performed in duplicate.
(§2) Shown in parentheses are calculated sensitization factor, defined as antibiotic's MICs ratio (in absence vs. presence of Compound B) at specified Compound B concentration.

E. coli strain 14384 = assay: Checkerboard antibiotic MIC with Compound B; format: cell-based, Escherichia coli
Protocol: as §1, §2

E. coli strain 16327 = assay: Checkerboard antibiotic MIC with Compound B; format: cell-based, Escherichia coli
Protocol: as §1, §2

E. coli strain 25922 = assay: Checkerboard antibiotic MIC with Compound B; format: cell-based, Escherichia coli
Protocol: as §1, §2

E. coli strain 35218 = assay: Checkerboard antibiotic MIC with Compound B; format: cell-based, Escherichia coli
Protocol: as §1, §2

[1] = system: E. coli strains 25922, 35218, 14182, 16327, 14384; assay: MIC against the 5 listed E. coli strains of Table 2 (stated together); format: cell-based, Escherichia coli; conditions: absence of Compound B
Protocol: as §1, §2

E. coli 25922 [2] = assay: Simultaneous versus delayed drug exposure assay in LB; format: cell-based, Escherichia coli
Protocol: (§3) Time-kill kinetics data were determined using 100 μl of bacterial suspension (10^6 CFU/ml), which was added to […] LB containing none of or specified concentrations of the tested compound, antibiotic, and combinations thereof. After the specified exposure time points (37° C. under shaking), aliquots were formed, subjected to serial 10-fold dilutions in saline (0.85% NaCl), and plated for bacterial enumeration after additional 24 hours incubation at 37° C. Time-kill experiments in human and mouse plasma were performed as described elsewhere. The effects of drug delay were assessed in LB, except that bacteria were pre-incubated with the tested compound or antibiotic for the specified time points, centrifuged, and resuspended in fresh LB-containing antibiotic or the tested compound, respectively, and incubated for 3 hours before CFU enumeration.

E. coli 25922 [3] = assay: Time-kill kinetics in broth versus plasma; format: cell-based, Escherichia coli
Protocol: as §3

[4] = Oral 20 mg/kg, published data, cited from earlier work

CO[C@H]1/C=C/O[C@@]2(C)Oc3c(C)c(O)c4c(O)c(c(/C=N/N5CCN(C)CC5)c(O)c4c3C2=O)NC(=O)/C(C)=C\C=C\[C@H](C)[C@H](O)[C@@H](C)[C@@H](O)[C@@H](C)[C@H](OC(C)=O)[C@@H]1C [Rifampin, rifampin]
survival rate of infected mice (Escherichia coli 25922): zero
Antibiotic MIC in the presence of Compound B (E. coli strain 14182; Compound B 0 μM): 8 µg/mL
Antibiotic MIC in the presence of Compound B (E. coli strain 14182; Compound B 2.5 μM): 0.031 µg/mL
Antibiotic MIC in the presence of Compound B (E. coli strain 14182; Compound B 5 μM): 0.004 µg/mL
Antibiotic MIC in the presence of Compound B (E. coli strain 14182; Compound B 10 μM): 0.002 µg/mL
Antibiotic MIC in the presence of Compound B (E. coli strain 14384; Compound B 0 μM): 8 µg/mL
Antibiotic MIC in the presence of Compound B (E. coli strain 14384; Compound B 2.5 μM): 0.016 µg/mL
Antibiotic MIC in the presence of Compound B (E. coli strain 14384; Compound B 5 μM): 0.008 µg/mL
Antibiotic MIC in the presence of Compound B (E. coli strain 14384; Compound B 10 μM): 0.002 µg/mL
Antibiotic MIC in the presence of Compound B (E. coli strain 16327; Compound B 0 μM): 16 µg/mL
Antibiotic MIC in the presence of Compound B (E. coli strain 16327; Compound B 2.5 μM): 0.031 µg/mL
Antibiotic MIC in the presence of Compound B (E. coli strain 16327; Compound B 5 μM): 0.004 µg/mL
Antibiotic MIC in the presence of Compound B (E. coli strain 16327; Compound B 10 μM): 0.002 µg/mL
Antibiotic MIC in the presence of Compound B (E. coli strain 25922; Compound B 0 μM): 8 to 16 µg/mL
Antibiotic MIC in the presence of Compound B (E. coli strain 25922; Compound B 0 μM, listed as rifampin): 16 µg/mL
Antibiotic MIC in the presence of Compound B (E. coli strain 25922; Compound B 2.5 μM): 0.063 µg/mL
Antibiotic MIC in the presence of Compound B (E. coli strain 25922; Compound B 5 μM): 0.004 µg/mL
Antibiotic MIC in the presence of Compound B (E. coli strain 25922; Compound B 10 μM): 0.001 µg/mL
MIC (E. coli strain 25922; Escherichia coli, read-out: rifampin's MIC value, in the presence of Compound B): 0.001 µg/mL
Antibiotic MIC in the presence of Compound B (E. coli strain 35218; Compound B 0 μM): 8 µg/mL
Antibiotic MIC in the presence of Compound B (E. coli strain 35218; Compound B 5 μM): 0.016 µg/mL
Antibiotic MIC in the presence of Compound B (E. coli strain 35218; Compound B 10 μM): 0.002 µg/mL
antibiotic MICs in the absence of the compound, all the strains tested [1]: 8 to 16 µg/mL
reduction of CFU count (E. coli 25922 [2]; 0.06 μg/ml rifampin in the presence of Compound B (10 μM), simultaneous, 3 hours in LB): ~4 log units
effect of delayed exposure on sensitization by Compound B (E. coli 25922 [2]; Compound B 10 μM with 0.06 μg/ml rifampin or 4 μg/ml erythromycin, LB): nearly abolished the sensitization effect
reduction of bacterial survival (E. coli 25922 [3]; LB broth, 24-hours end point, rifampin 1 μg/ml combined with Compound B 0.6 μM): more than 99%
reduction of CFU count (E. coli 25922 [3]; human plasma, within 2 hours of exposure, rifampin 1 μg/ml with Compound B 0.6 μM): more than 3 log units
time to accomplish the CFU reduction (more than 3 log units) (E. coli 25922 [3]; human plasma, antibiotic with Compound B 0.6 μM): ≤ 2 hours
combined action with Compound B (E. coli 25922 [3]; mouse plasma, 24 hours end point, Compound B 10 μM with rifampin 1 μg/ml or erythromycin 3 μg/ml): expressed synergism of action
Plasma concentration ([4]; 0.5 h): 6500 ± 4700 ng/mL
Plasma concentration ([4]; 1 h): 10300 ± 400 ng/mL
Plasma concentration ([4]; 2 h): 13200 ± 4400 ng/mL
